Consider 1 compound from patent US9120774B2 (University of Kansas, priority 2009, dated 2015).

Where two headings read alike, the source gives them in different places.

For experiment [1], the system named is MCF-7 (estrogen receptor positive breast cancer cells). Nature of the experiment: Anti-proliferation activity against MCF-7 cells (MTS/PMS). In kind it is cell-based. The note with it: up to 100 μM. In short, it runs like this:
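Cells seeded at 2000/well, attached overnight, then exposed to compound at varying concentrations (1% DMSO final) for 72 hours at 37° C. Viable cells read by MTS/PMS, normalised to 1% DMSO as 100% proliferation. IC50 from separate triplicate experiments.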

Experiment [2] deals with Hsp90, androgen receptor and AKT in LNCaP prostate cancer cells. The experiment can be described thus: Western blot of Hsp90 and client proteins (AR, AKT) in LNCaP cells. In kind it is cell-based. The settings on record: 24 hours. As for the experimental part:
FIG. 3 (top panel) is a western blot analysis of prostate cancer LNCaP cells treated with KU-1/A4. The bottom panel is a western blot analysis of prostate cancer LAPC-4 cells incubated with KU-1/A4. Actin was used as a control in both assays. […] Western blot analysis of the effects of KU-1/A4 on Hsp90 client proteins in prostate cancer LNCaP cells. Cells were treated with varying concentrations of KU-1/A4 for 24 hours and probed for the androgen receptor (“AR”), protein kinase […] (“AKT”), Hsp90, and actin.
The steroid hormone receptors are also dependent upon the Hsp90 protein folding machinery for activation and hormone binding. To determine whether KU-1/A4 had similar effects on the androgen receptor, KU-1/A4 was tested in both a mutated androgen receptor-dependent prostate cancer cell line (LNCaP) and a wild type androgen receptor prostate cancer cell line (LAPC-4). More specifically, the prostate cancer cells were grown in RPMI with 10% fetal calf serum in a standard fashion. Once the cells had reached near confluence, they were treated with vehicle (DMSO) or varying concentrations of KU-1/A4 ranging from 10 nm to 100 μM for 24 hours. Cells were harvested and cell lysates prepared. […] More specifically, Western Blot analysis protein concentrations in serum samples were determined by the Pierce BCA protein assay kit according to the manufacturer's protocol. […]

For experiment [3], the system named is primary cortical neurons exposed to Aβ25-35. Nature of the experiment: Protection against Aβ-induced toxicity in primary neurons (Live-Dead assay). In kind it is cell-based, rat. As for the experimental part: In this example, the neuroprotective effects of KU-1/A4 were determined in primary neurons derived from embryonic rat brain exposed to Aβ (10 μM) in the presence or absence of the test compound for 48 hours. The percentage of surviving neurons was determined by labeling with the fluorescent dyes calcein-AM and propidium iodide as previously described. […] The numbers of calcein-labeled live cells and propidium iodide-labeled dead neurons in several fields were visualized via fluorescence microscopy and counted as described.
Briefly, about 10 to 16 brains were removed from fetuses delivered by cesarean section, and the cortices dissected out. The neurons were isolated and suspended in DMEM/F12 supplemented with 10% FBS and plated on sterile dishes or cover slips coated with 10 μg/ml poly-D-lysine and 5 μg/ml mouse laminin. After 24 hours, the serum-containing medium was removed, and neurons were maintained in Neurobasal medium (Gibco) with 2% B-27 supplements (Gibco). Cells were maintained in culture at 37° C. in 5% CO2 and 97% humidity for 7 to 8 eight days in vitro (DIV) before use. Neurons were exposed to 0.004% DMSO or the indicated concentrations of GA or KU-1/A4 for two hours before the addition of 10 μM Aβ25-35 for either 24 or 48 hours as indicated. Stock solutions of Aβ were prepared in sterile water at a concentration of 1.3 mM and stored at −20° C. Aliquots of the stock solutions were diluted to 1 mM in sterile 50 mM Tris-HCl, pH 7.4, and incubated at 37° C. for 24 hours to promote oligomerization of the peptides prior to treatment of the neurons. The effects of KU-1/A4, GA, Aβ, or the indicated combinations on neuronal viability were determined by monitoring cell survival using the Live-Dead assay as previously described. […] Digital images from 6 fields per dish were captured, and the number of viable (green) and dead (red) cells counted. All experiments were conducted with duplicate dishes from at least two neuronal preparations for each treatment, with about 1,000 cells analyzed/treatment condition. The data are expressed as the fraction of viable cells calculated from the total number of neurons counted under each treatment condition. The significance of differences between cultures exposed to various treatment conditions was determined using Student's t-test.

A word on the EC50: it is the concentration needed to bring the measured effect to its halfway point. As to `CO[C@@H]1[C@@H](O)[C@@H](O)[C@H](Oc2ccc3cc(NC(C)=O)c(=O)oc3c2)OC1(C)C` [KU-1/A4, N-(7-((2R,3R,4S,5R)-3,4-dihydroxy-5-methoxy-6,6-dimethyl-tetrahydro-2H-pyran-2-yloxy)-2-oxo-2H-chromen-3-yl)acetamide], in experiment [1], the “anti-proliferative effects MCF-7” value was “no anti-proliferative effects”. For the same compound, in experiment [2], the “concentration at which degradation of client proteins AR and AKT occurs” value stood at 1 µM; the “lowest concentration inducing Hsp90” value is 10 nM. The “lowest concentration with minor neuroprotective effects” value in experiment [3] (Aβ 10 μM, 48 hours) was 0.5 nM. In addition, in experiment [3] (Aβ 10 μM, compound added 2 hours before, viability at 48 hours), the “lowest concentration giving (significant) protection of neurons against Aβ” value was found to be 5 nM. Besides, the EC50 in experiment [3] (Rattus norvegicus, Primary cortical neuron, read-out: EC50, prevention of Aβ-induced toxicity, Aβ 10 μM, compound added 2 hours before, viability at 48 hours) was about 6 nM. The EC50 in experiment [3] (read-out: EC50, prevention of Aβ-induced toxicity, Aβ 10 μM, compound added 2 hours before, viability at 48 hours) turned out to be 5 nM.
